Measurements from the CombiSolv-Exp solvation set (Vermeire and Green 2021).

Experiment: solvent given as SMILES

SMILES: CC(=O)Oc1ccccc1C(=O)O
- solvation free energy, 298 K (in C1CCOC1): -14.3 kcal/mol
- solvation free energy, 298 K (in C1COCCO1): -14.1 kcal/mol
- solvation free energy, 298 K (in CC(=O)CC(C)C): -13.2 kcal/mol
- solvation free energy, 298 K (in CC(=O)OC(C)C): -13.1 kcal/mol
- solvation free energy, 298 K (in CC(C)(C)O): -13.7 kcal/mol
- solvation free energy, 298 K (in CC(C)=O): -14.1 kcal/mol
- solvation free energy, 298 K (in CC(C)CCO): -13.4 kcal/mol
- solvation free energy, 298 K (in CC(C)CO): -13.2 kcal/mol
- solvation free energy, 298 K (in CC(C)O): -13.6 kcal/mol
- solvation free energy, 298 K (in CC(C)OC(C)C): -12.4 kcal/mol
- solvation free energy, 298 K (in CCC(C)=O): -13.7 kcal/mol
- solvation free energy, 298 K (in CCC(C)O): -13.5 kcal/mol
- solvation free energy, 298 K (in CCCC(=O)OC): -13.1 kcal/mol
- solvation free energy, 298 K (in CCCC(C)O): -13.3 kcal/mol
- solvation free energy, 298 K (in CCCCCCCCCCO): -12.9 kcal/mol
- solvation free energy, 298 K (in CCCCCCCO): -13.1 kcal/mol
- solvation free energy, 298 K (in CCCCCCO): -13.2 kcal/mol
- solvation free energy, 298 K (in CCCCCO): -13.3 kcal/mol
- solvation free energy, 298 K (in CCCCO): -13.4 kcal/mol
- solvation free energy, 298 K (in CCCCOC(C)=O): -13.1 kcal/mol
- solvation free energy, 298 K (in CCCO): -13.6 kcal/mol
- solvation free energy, 298 K (in CCO): -14 kcal/mol
- solvation free energy, 298 K (in CCOC(C)=O): -13.5 kcal/mol
- solvation free energy, 298 K (in CCOCC): -13.2 kcal/mol
- solvation free energy, 298 K (in CO): -14.1 kcal/mol
- solvation free energy, 298 K (in COC(C)(C)C): -13.2 kcal/mol
- solvation free energy, 298 K (in COC(C)=O): -13.6 kcal/mol

SMILES: CCCOC(=O)c1ccccc1O
- solvation free energy, 298 K (in O): -3.66 kcal/mol

SMILES: CCCCC(C)O (centres undefined)
- solvation free energy, 298 K (in O): -4.28 kcal/mol

SMILES: O=Cc1ccccc1O
- solvation free energy, 298 K (in O): -4.71 kcal/mol

SMILES: CNCCc1ccc(O)cc1
- solvation free energy, 298 K (in C=CCCCCCCC=C): -9.48 kcal/mol
- solvation free energy, 298 K (in O): -11.9 kcal/mol

SMILES: CC(N)C(=O)C1OS(=O)OCC2C1C1(Cl)C(Cl)=C(Cl)C2(Cl)C1(Cl)Cl (centres undefined)
- solvation free energy, 298 K (in CCCCCCCCO): -11.5 kcal/mol

SMILES: COC(=O)CC#N
- solvation free energy, 298 K (in O): -6.72 kcal/mol

SMILES: CC(=O)N1CCCC1
- solvation free energy, 298 K (in O): -9.8 kcal/mol

SMILES: CCCCCI
- solvation free energy, 298 K (in O): -0.14 kcal/mol

SMILES: CC(C)(C)c1ccccc1
- solvation free energy, 298 K (in C1CCOC1): -6.93 kcal/mol
- solvation free energy, 298 K (in CC#N): -5.86 kcal/mol
- solvation free energy, 298 K (in CC(C)O): -5.63 kcal/mol
- solvation free energy, 298 K (in CO): -5.52 kcal/mol
- solvation free energy, 298 K (in O): -0.42 kcal/mol

SMILES: CCCCCCCCCC(=O)OC
- solvation free energy, 298 K (in O): -1.91 kcal/mol

SMILES: CCCCOCCOC(=O)c1ccccc1C(=O)OCCOCCCC
- solvation free energy, 298 K (in O): -12.8 kcal/mol

SMILES: C=C(C)C1CC=C(C)C(OC=O)C1 (centres undefined)
- solvation free energy, 298 K (in O): -3.82 kcal/mol

SMILES: C1=CCCCCC1
- solvation free energy, 298 K (in CN1CCCC1=O): -4.22 kcal/mol
- solvation free energy, 298 K (in CN(C)C=O): -4.23 kcal/mol
- solvation free energy, 298 K (in O): 0.7 kcal/mol

SMILES: CCC[N+](=O)[O-]
- solvation free energy, 298 K (in CC(C)CC(C)(C)C): -3.94 kcal/mol
- solvation free energy, 298 K (in CCCCCC): -4.05 kcal/mol
- solvation free energy, 298 K (in CCCCCCC): -3.97 kcal/mol
- solvation free energy, 298 K (in CCCCCCCC): -3.95 kcal/mol
- solvation free energy, 298 K (in CCCCCCCCCCCCCCCC): -3.79 kcal/mol
- solvation free energy, 298 K (in CCCCCCCCO): -4.44 kcal/mol
- solvation free energy, 298 K (in O): -3.38 kcal/mol
- solvation free energy, 298 K (in [2H]O[2H]): -3.44 kcal/mol

SMILES: Brc1c(Br)c(Br)c(Br)c(Br)c1Br
- solvation free energy, 298 K (in CCCCCCCCC=CCCCCCCCC(=O)OCC(COC(=O)CCCCCCCC=CCCCCCCCC)OC(=O)CCCCCCCC=CCCCCCCCC): -12.7 kcal/mol
- solvation free energy, 298 K (in O): -3.08 kcal/mol

SMILES: CC(=O)CC(=O)c1ccccc1
- solvation free energy, 298 K (in CCCCCC): -7.72 kcal/mol
- solvation free energy, 298 K (in CCCCCCC): -7.87 kcal/mol
- solvation free energy, 298 K (in CCCCCCCC): -7.76 kcal/mol
- solvation free energy, 298 K (in CCCCCCCCCC): -7.76 kcal/mol

SMILES: CCOc1ccccc1
- solvation free energy, 298 K (in CCCCCC): -6.02 kcal/mol
- solvation free energy, 298 K (in O): -2.22 kcal/mol

SMILES: Cc1cccc(C)n1
- solvation free energy, 298 K (in CC(C)CC(C)(C)C): -5.29 kcal/mol
- solvation free energy, 298 K (in O): -4.59 kcal/mol

SMILES: CC1=CCC(=C(C)C)CC1
- solvation free energy, 298 K (in O): 0.16 kcal/mol

SMILES: O=C(O)c1cc([N+](=O)[O-])cc([N+](=O)[O-])c1
- solvation free energy, 298 K (in C1CCOC1): -14.9 kcal/mol
- solvation free energy, 298 K (in C1COCCO1): -14.6 kcal/mol
- solvation free energy, 298 K (in CC(C)CCO): -13.8 kcal/mol
- solvation free energy, 298 K (in CC(C)CO): -13.7 kcal/mol
- solvation free energy, 298 K (in CC(C)O): -14.1 kcal/mol
- solvation free energy, 298 K (in CC(C)OC(C)C): -13 kcal/mol
- solvation free energy, 298 K (in CCC(C)O): -13.9 kcal/mol
- solvation free energy, 298 K (in CCCC(C)O): -13.9 kcal/mol
- solvation free energy, 298 K (in CCCCCCCCCCO): -13.6 kcal/mol
- solvation free energy, 298 K (in CCCCCCCCO): -13.7 kcal/mol
- solvation free energy, 298 K (in CCCCCCCO): -13.7 kcal/mol
- solvation free energy, 298 K (in CCCCCCO): -13.8 kcal/mol
- solvation free energy, 298 K (in CCCCCO): -13.9 kcal/mol
- solvation free energy, 298 K (in CCCCCOC(C)=O): -13.7 kcal/mol
- solvation free energy, 298 K (in CCCCO): -14 kcal/mol
- solvation free energy, 298 K (in CCCCOC(C)=O): -13.9 kcal/mol
- solvation free energy, 298 K (in CCCO): -14.2 kcal/mol
- solvation free energy, 298 K (in CCO): -14.4 kcal/mol
- solvation free energy, 298 K (in CCOC(C)=O): -14.2 kcal/mol
- solvation free energy, 298 K (in CCOCC): -13.9 kcal/mol
- solvation free energy, 298 K (in CN(C)C=O): -14.8 kcal/mol
- solvation free energy, 298 K (in O): -11.3 kcal/mol

SMILES: CCCCCCCI
- solvation free energy, 298 K (in O): 0.27 kcal/mol

SMILES: CC(=O)OCC1=CCC2CC1C2(C)C (centres undefined)
- solvation free energy, 298 K (in O): -3.6 kcal/mol

SMILES: CCC(C)CCCC(C)CCCC(C)CCCC(C)C (centres undefined)
- solvation free energy, 298 K (in O): 4.83 kcal/mol

SMILES: CC1=CCC2C3C1C2(C)CCCC3(C)C (centres undefined)
- solvation free energy, 298 K (in O): 0.29 kcal/mol

SMILES: CC(C)CCCCCCCOC(=O)c1ccccc1C(=O)OCCCCCCCC(C)C
- solvation free energy, 298 K (in O): -5.93 kcal/mol

SMILES: CC(C)(C)C
- solvation free energy, 298 K (in C1COCCO1): -2.16 kcal/mol
- solvation free energy, 298 K (in CC(C)=O): -2.22 kcal/mol
- solvation free energy, 298 K (in CCCCCC): -2.77 kcal/mol
- solvation free energy, 298 K (in CCO): -2.2 kcal/mol
- solvation free energy, 298 K (in CO): -1.91 kcal/mol
- solvation free energy, 298 K (in O): 2.66 kcal/mol
